Assays:
[1] = target: T1, human mGluR5d (Homo sapiens, UniProt P41594); assay: FLIPR assay, functional assessment of mGluR5 antagonism (intracellular calcium mobilization); type: cell-based; details: cells expressing human mGluR5d; read-out: FLIPR hmGluR5d
T1 construct: expressed in transfected cells; The culture medium contains hygromycin B and Zeocin as selection agents; The separate IP3 assay names 'GHEK stably expressing the human mGluR5d'
Source text: Functional Assessment of mGluR5 Antagonism it Cell Lines Expressing mGluR5D
The properties of the compounds of the invention can be analyzed using standard assays for pharmacological activity. Examples of glutamate receptor assays are well known in the art as described in for example Aramori et al., Neuron 8:757 (1992), Tanabe et al., Neuron 8:169 (1992), Miller et al., J. Neuroscience 15: 6103 (1995), Balazs, et al., J. Neurochemistry 69:151 (1997). The methodology described in these publications is to incorporated herein by reference. Conveniently, the compounds of the invention can be studied by means of an assay (FLIPR) that measures the mobilization of intracellular calcium, [Ca^2+]i in cells expressing mGluR5 or another assay (IP3) that measures inositol phosphate turnover.
Cells expressing human mGluR5d as described in WO97/05252 cultured in a mixture of high glucose DMEM with Glutamax (31966-021) (500 mL), 10% dialyzed fetal bovine serum (Hyclone #SH30079.03)(56 mL), 200 μg/mL Hygromycin B (Invitrogen 45-0430, 50 mg/mL) (2.2 mL), 200 μg/mL Zeocin (Invitrogen #R250-01; 100 mg/mL)(1.1 mL) are seeded at a density of 100,000 cells per well on collagen coated clear bottom 96-well plates with black sides and cells were allowed to adhere over night before experiments. All assays are done in a buffer containing 146 mM NaCl, 5 mM KCl, 1 mM MgCl2, 1 mM CaCl2, 20 mM HEPES, 1 mg/mL glucose and 1 mg/mL BSA Fraction IV (pH 7.4). Cell cultures in the 96-well plates are loaded for 60 minutes in the above mentioned buffer containing 6 μM of the acetoxymethyl ester form of the fluorescent calcium indicator fluo-3 (Molecular Probes, Eugene, Oreg.) in 0.025% pluronic acid (a proprietary, non-ionic surfactant polyol—CAS Number 9003-11-6). […] The fluorescence signal is sampled 50 times at 1-second intervals followed by 3 samples at 5-second intervals immediately after each of the two additions. Responses are measured as the difference between the peak heights of the response to agonist, less the background fluorescence within the sample period. […]

[2] = Determination of brain to plasma ratio in rat; type: in vivo, female Sprague Dawley rats; details: female, Sprague Dawley, brain and plasma, read-out: Brain/Plasma Ratio of compound in Rat
Protocol: Brain to plasma ratios are estimated in female Sprague Dawley rats. The compound is dissolved in water or another appropriate vehicle. For determination of brain to plasma ratio the compound is administrated as a subcutaneous, or an intravenous bolus injection, or an intravenous infusion, or an oral administration. At a predetermined time point after the administration a blood sample is taken with cardiac puncture. The rat is terminated by cutting the heart open, and the brain is immediately retained. The blood samples are collected in heparinized tubes and centrifuged within 30 minutes, in order to separate the plasma from the blood cells. The plasma is transferred to 96-well plates and stored at −20° C. until analysis. The brains are divided in half, and each half is placed in a pre-tarred tube and stored at −20° C. until analysis. Prior to the analysis, the brain samples are thawed and 3 mL/g brain tissue of distilled water is added to the tubes. The brain samples are sonicated in an ice bath until the samples are homogenized. Both brain and plasma samples are precipitated with acetonitrile. After centrifugation, the supernatant is diluted with 0.2% formic acid. Analysis is performed on a short reversed-phase HPLC column with rapid gradient elution and MSMS detection using a triple quadrupole instrument with electrospray ionisation and Selected Reaction Monitoring (SRM) acquisition. Liquid-liquid extraction may be used as an alternative sample clean-up. The samples are extracted, by shaking, to an organic solvent after addition of a suitable buffer. An aliquot of the organic layer is transferred to a new vial and evaporated to dryness under a stream of nitrogen. After reconstitution of the residuals the samples are ready for injection onto the HPLC column.

T1 sequence (P41594 21-942 isoform P41594-3 limits assumed): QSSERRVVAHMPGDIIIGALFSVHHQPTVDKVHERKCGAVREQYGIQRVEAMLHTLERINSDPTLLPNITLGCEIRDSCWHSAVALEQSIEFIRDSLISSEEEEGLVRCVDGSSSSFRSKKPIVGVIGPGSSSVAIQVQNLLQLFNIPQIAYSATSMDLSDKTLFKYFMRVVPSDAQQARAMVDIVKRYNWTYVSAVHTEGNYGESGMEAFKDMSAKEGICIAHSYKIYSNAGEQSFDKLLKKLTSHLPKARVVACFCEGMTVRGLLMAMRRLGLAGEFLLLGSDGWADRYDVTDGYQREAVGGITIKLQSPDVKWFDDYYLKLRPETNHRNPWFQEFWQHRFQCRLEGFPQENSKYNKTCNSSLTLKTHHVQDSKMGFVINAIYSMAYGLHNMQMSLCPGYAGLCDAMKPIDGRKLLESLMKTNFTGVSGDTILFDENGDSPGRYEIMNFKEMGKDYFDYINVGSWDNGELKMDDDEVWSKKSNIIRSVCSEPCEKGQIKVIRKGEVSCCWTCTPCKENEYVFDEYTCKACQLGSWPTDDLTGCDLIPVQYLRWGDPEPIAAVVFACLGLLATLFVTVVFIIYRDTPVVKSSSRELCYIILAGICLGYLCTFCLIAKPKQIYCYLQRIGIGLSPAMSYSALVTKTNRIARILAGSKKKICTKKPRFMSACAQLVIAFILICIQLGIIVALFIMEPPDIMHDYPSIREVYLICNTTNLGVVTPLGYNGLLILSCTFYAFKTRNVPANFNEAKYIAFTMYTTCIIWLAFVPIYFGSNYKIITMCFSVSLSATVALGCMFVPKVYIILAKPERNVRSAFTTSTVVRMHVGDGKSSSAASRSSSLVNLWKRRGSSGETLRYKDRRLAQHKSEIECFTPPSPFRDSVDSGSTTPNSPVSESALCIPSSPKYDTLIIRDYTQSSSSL

Work on `C[C@@H](c1noc(-c2cccc(Cl)c2)n1)N(C)c1nnc(-c2cc[n+]([O-])cc2)n1C` [Example 4, N-{(1S)-1-[5-(3-chlorophenyl)-1,2,4-oxadiazol-3-yl]ethyl}-N,4-dimethyl-5-(1-oxidopyridin-4-yl)-4H-1,2,4-triazol-3-amine] yielded an IC50 [1] of 81 nM and a Kp [2] of 0.01.
In the case of `Cn1c(-c2ccc[n+]([O-])c2)nnc1N1CCCC[C@@H]1c1nnn(-c2cccc(Cl)c2)n1` [Example 5, 3-(5-{(2R)-2-[2-(3-chlorophenyl)-2H-tetrazol-5-yl]piperidin-1-yl}-4-methyl-4H-1,2,4-triazol-3-yl)pyridine 1-oxide], the IC50 [1] is reported as 49 nM and the Kp [2] is reported as less than 0.015.
Molecule `Cn1c(-c2ccc[n+]([O-])c2)nnc1N1CCC[C@@H]1c1nnn(-c2cccc(Cl)c2)n1` [Example 6, 3-(5-{(2R)-2-[2-(3-chlorophenyl)-2H-tetrazol-5-yl]pyrrolidin-1-yl}-4-methyl-4H-1,2,4-triazol-3-yl)pyridine 1-oxide] has an IC50 [1] of 108 nM and a Kp [2] of less than 0.01.

— US20090111854A1, “1,2,4-TRIAZOLE ARYL N-OXIDES DERIVATIVES AS MODULATORS OF MGLUR5” (AstraZeneca AB, priority 2007, published 2009)
